Reference: the NIST ThermoML archive (doi:10.1016/j.fluid.2015.06.016)
Numbers after ± are expanded uncertainties.

Conditions: 303.15 K; 101.33 kPa; Liquid; Vibrating tube method

Structure (SMILES)	mass density [kg/m3]
OCC(O)CO [glycerol]	1257.13 ± 0.25
O=S1(=O)CCCC1 [sulfolane]	1265.75 ± 0.45
Cc1ccccc1 [toluene]	857.606 ± 0.18

The next lines start with the values.

mass density [kg/m3]	Structure (SMILES)
722.439 ± 0.28	CCCCCCCCCC [decane]
1184.46 ± 1.2	NCCO.O=CO [2-hydroxyethylammonium formate]
